# Laboratory results published in US20250186436A1 (4E Therapeutics, Inc., priority 2021, published 2025).
# Several values for one entry are separate records, joined by “and”; a condition that tells them apart may be missing. Equal entries are not always repeated. Where two headings read alike, the source gives them in different places.
# Key:
# [1] = PK study in male Sprague-Dawley rats dosed once per day for five days, PO 1 mg/kg, 0.5% HPMC (Example 6); type: in vivo; conditions: 0.5% HPMC suspension
# Description: Example 6: PK study of 4ET-03-053 in male Sprague-Dawley rats dosed once per day for five days (P0; 1 mg/kg; 0.500HPMC aqueous suspension)
# Table 18 provides plasma and brain concentrations of 4ET-03-0053 at 24 hr after the last dose of five daily P0 doses.
# [2] = PK study in male Sprague-Dawley rats dosed once per day for five days, PO 25 mg/kg, 0.5% HPMC (Example 8); type: in vivo; conditions: 0.5% HPMC suspension
# Description: Example 8. PK study of 4ET-03-053 in male Sprague-Dawley rats dosed once per day for five days (P0; 25 mg/kg; 0.5HPMC aqueous suspension)
# Table 24 provides plasma and brain concentrations at 24 hr after the last dose of five daily PO doses of 4ET-03-053.
# [3] = Sprague-Dawley rats, day 5 of daily PO 1 mg/kg, individual animals, 1 mg/kg
# [4] = Sprague-Dawley rats, day 5 of daily PO 1 mg/kg, mean (n = 3)
# [5] = male Sprague-Dawley rats, single (first) PO 1 mg/kg dose, individual animals, 1 mg/kg
# [6] = male Sprague-Dawley rats, single (first) PO 1 mg/kg dose, mean (n = 3)
# [7] = male, Sprague-Dawley, rat, in vivo, po, 1 mg/kg, Sprague-Dawley rats, day 5 of daily PO 1 mg/kg, individual animals
# [8] = male, Sprague-Dawley, rat, in vivo, po, 1 mg/kg, Sprague-Dawley rats, day 5 of daily PO 1 mg/kg, mean (n = 3)
# [9] = male, Sprague-Dawley, rat, in vivo, po, 1 mg/kg, male Sprague-Dawley rats, single (first) PO 1 mg/kg dose, individual animals
# [10] = male, Sprague-Dawley, rat, in vivo, po, 1 mg/kg, male Sprague-Dawley rats, single (first) PO 1 mg/kg dose, mean (n = 3)
# [11] = day five of daily PO 25 mg/kg, individual animals, 25 mg/kg
structure (smiles),measurement,setting,value
"Cc1cc(Nc2cc(N)ncn2)c(=O)n2c1C(=O)NC21CCC2(CC2)CC1 [4ET-03-053, 6″-((6-Aminopyrimidin-4-yl)amino)-8″-methyl-2″H-dispiro[cyclopropane-1,1′-cyclohexane-4′,3″-imidazo[1,5-a]pyridine]-1″,5″-dione]",time to peak plasma concentration,"[1]; Sprague-Dawley rats, after five daily PO doses of 1 mg/kg",≤ 2 h
same,AUCinf,[1]; [3],43537 ng·h/mL and 36277 ng·h/mL
same,AUCinf/D,[1]; [3],49825 kg·h/kL and 43537 kg·h/kL and 36277 kg·h/kL
same,AUClast,[1]; [3],40882 ng·h/mL and 34335 ng·h/mL
same,Clast,[1]; [3],318 ng/mL and 291 ng/mL
same,Cmax,[1]; [3],4550 ng/mL and 4500 ng/mL
same,Cmax/D,[1]; [3],4150 kg/kL and 4550 kg/kL and 4500 kg/kL
same,F,[1]; [3],96.8% and 84.6% and 70.5%
same,MRTinf,[1]; [3],7.96 h
same,t1/2,[1]; [3],5.90 h and 6.21 h
same,AUCinf/D,[1]; [4],43213 kg·h/kL
same,Cmax/D,[1]; [4],4400 kg/kL
same,F,[1]; [4],84.0%
same,AUCinf,[1]; [5],33302 ng·h/mL and 30451 ng·h/mL
same,AUCinf/D,[1]; [5],37178 kg·h/kL and 33302 kg·h/kL and 30451 kg·h/kL
same,AUClast,[1]; [5],31340 ng·h/mL and 28992 ng·h/mL
same,Clast,[1]; [5],237 ng/mL and 224 ng/mL
same,Cmax,[1]; [5],2750 ng/mL
same,Cmax/D,[1]; [5],2400 kg/kL and 2750 kg/kL and 2580 kg/kL
same,F,[1]; [5],72.2% and 64.7% and 59.2%
same,MRTinf,[1]; [5],8.31 h and 7.83 h
same,t1/2,[1]; [5],5.77 h and 5.92 h
same,AUCinf/D,[1]; [6],33644 kg·h/kL
same,Cmax/D,[1]; [6],2577 kg/kL
same,F,[1]; [6],65.4%
same,time to peak plasma concentration,"[1]; male Sprague-Dawley rats, single PO 1 mg/kg",≤ 2 h
same,bioavailability,"[1]; male, Sprague-Dawley, rat, in vivo, po, 1 mg/kg, Sprague-Dawley rats, after five daily PO doses of 1 mg/kg",84%
same,concentration at 24 h,"[1]; male, Sprague-Dawley, rat, in vivo, po, 1 mg/kg, Sprague-Dawley rats, after five daily PO doses of 1 mg/kg, at 24 hr, read-out: last measurable concentration",278 ng/mL
same,Cmax,"[1]; male, Sprague-Dawley, rat, in vivo, po, 1 mg/kg, Sprague-Dawley rats, after five daily PO doses of 1 mg/kg, read-out: peak plasma concentration (Cmax)",4400 ng/mL
same,half-life,"[1]; male, Sprague-Dawley, rat, in vivo, po, 1 mg/kg, Sprague-Dawley rats, after five daily PO doses of 1 mg/kg, read-out: terminal half-life (t1/2) (converted)",6.01 h
same,AUC(0-inf),"[1]; male, Sprague-Dawley, rat, in vivo, po, 1 mg/kg, Sprague-Dawley rats, after five daily PO doses of 1 mg/kg, read-out: total systemic exposure (AUCinf)",43200 ng·h/mL
same,AUC(0-t),[1]; [7],47100 ng·h/mL
same,MRT inf,[1]; [7],7.89 h
same,Tmax,[1]; [7],1 h
same,AUC(0-inf),"[1]; male, Sprague-Dawley, rat, in vivo, po, 1 mg/kg, Sprague-Dawley rats, day 5 of daily PO 1 mg/kg, individual animals, read-out: AUCinf",49800 ng·h/mL
same,concentration at 24 h,"[1]; male, Sprague-Dawley, rat, in vivo, po, 1 mg/kg, Sprague-Dawley rats, day 5 of daily PO 1 mg/kg, individual animals, read-out: Clast",226 ng/mL
same,Cmax,"[1]; male, Sprague-Dawley, rat, in vivo, po, 1 mg/kg, Sprague-Dawley rats, day 5 of daily PO 1 mg/kg, individual animals, read-out: Cmax",4150 ng/mL
same,half-life,"[1]; male, Sprague-Dawley, rat, in vivo, po, 1 mg/kg, Sprague-Dawley rats, day 5 of daily PO 1 mg/kg, individual animals, read-out: t1/2 (converted)",5.91 h
same,AUC(0-t),[1]; [8],40800 ng·h/mL
same,MRT inf,[1]; [8],7.8 h
same,Tmax,[1]; [8],1.33 h
same,AUC(0-inf),"[1]; male, Sprague-Dawley, rat, in vivo, po, 1 mg/kg, Sprague-Dawley rats, day 5 of daily PO 1 mg/kg, mean (n = 3), read-out: AUCinf",43200 ng·h/mL
same,concentration at 24 h,"[1]; male, Sprague-Dawley, rat, in vivo, po, 1 mg/kg, Sprague-Dawley rats, day 5 of daily PO 1 mg/kg, mean (n = 3), read-out: Clast",278 ng/mL
same,Cmax,"[1]; male, Sprague-Dawley, rat, in vivo, po, 1 mg/kg, Sprague-Dawley rats, day 5 of daily PO 1 mg/kg, mean (n = 3), read-out: Cmax",4400 ng/mL
same,half-life,"[1]; male, Sprague-Dawley, rat, in vivo, po, 1 mg/kg, Sprague-Dawley rats, day 5 of daily PO 1 mg/kg, mean (n = 3), read-out: t1/2 (converted)",6.01 h
same,AUC(0-t),[1]; [9],35100 ng·h/mL
same,MRT inf,[1]; [9],8.25 h
same,Tmax,[1]; [9],2 h
same,AUC(0-inf),"[1]; male, Sprague-Dawley, rat, in vivo, po, 1 mg/kg, male Sprague-Dawley rats, single (first) PO 1 mg/kg dose, individual animals, read-out: AUCinf",37200 ng·h/mL
same,concentration at 24 hr,"[1]; male, Sprague-Dawley, rat, in vivo, po, 1 mg/kg, male Sprague-Dawley rats, single (first) PO 1 mg/kg dose, individual animals, read-out: Clast",179 ng/mL
same,Cmax,"[1]; male, Sprague-Dawley, rat, in vivo, po, 1 mg/kg, male Sprague-Dawley rats, single (first) PO 1 mg/kg dose, individual animals, read-out: Cmax",2400 ng/mL
same,half-life,"[1]; male, Sprague-Dawley, rat, in vivo, po, 1 mg/kg, male Sprague-Dawley rats, single (first) PO 1 mg/kg dose, individual animals, read-out: t1/2 (converted)",5.51 h
same,AUC(0-t),[1]; [10],31800 ng·h/mL
same,MRT inf,[1]; [10],8.13 h
same,Tmax,[1]; [10],2 h
same,AUC(0-inf),"[1]; male, Sprague-Dawley, rat, in vivo, po, 1 mg/kg, male Sprague-Dawley rats, single (first) PO 1 mg/kg dose, mean (n = 3), read-out: AUCinf",33600 ng·h/mL
same,concentration at 24 hr,"[1]; male, Sprague-Dawley, rat, in vivo, po, 1 mg/kg, male Sprague-Dawley rats, single (first) PO 1 mg/kg dose, mean (n = 3), read-out: Clast",213 ng/mL
same,Cmax,"[1]; male, Sprague-Dawley, rat, in vivo, po, 1 mg/kg, male Sprague-Dawley rats, single (first) PO 1 mg/kg dose, mean (n = 3), read-out: Cmax",2580 ng/mL
same,half-life,"[1]; male, Sprague-Dawley, rat, in vivo, po, 1 mg/kg, male Sprague-Dawley rats, single (first) PO 1 mg/kg dose, mean (n = 3), read-out: t1/2 (converted)",5.73 h
same,bioavailability,"[1]; male, Sprague-Dawley, rat, in vivo, po, 1 mg/kg, male Sprague-Dawley rats, single PO 1 mg/kg",65.4%
same,concentration at 24 h,"[1]; male, Sprague-Dawley, rat, in vivo, po, 1 mg/kg, male Sprague-Dawley rats, single PO 1 mg/kg, at 24 hr, read-out: last measurable concentration",213 ng/mL
same,Cmax,"[1]; male, Sprague-Dawley, rat, in vivo, po, 1 mg/kg, male Sprague-Dawley rats, single PO 1 mg/kg, read-out: peak plasma concentration (Cmax)",2580 ng/mL
same,half-life,"[1]; male, Sprague-Dawley, rat, in vivo, po, 1 mg/kg, male Sprague-Dawley rats, single PO 1 mg/kg, read-out: terminal half-life (t1/2) (converted)",5.73 h
same,AUC(0-inf),"[1]; male, Sprague-Dawley, rat, in vivo, po, 1 mg/kg, male Sprague-Dawley rats, single PO 1 mg/kg, read-out: total systemic exposure (AUCinf)",33600 ng·h/mL
same,time to peak plasma concentration,[2]; after the last of five daily 25 mg/kg PO doses,≤ 1 h
same,AUCinf,[2]; [11],489224 ng·h/mL and 471587 ng·h/mL
same,AUCinf/D,[2]; [11],16316 kg·h/kL and 19569 kg·h/kL and 18863 kg·h/kL
